Measured values: patent US8729254B2, “Derivative of glucose and vitamin F, compositions comprising it, uses and preparation process” (L'Oreal, priority 2002, dated 2014)

Experiments:
[1] = target: T1, purified soybean 15-lipoxygenase L1 (Glycine max, UniProt P08170); assay: inhibition of purified soybean 15-lipoxygenase (oxymeter, Vmax of oxygen consumption); format: biochemical; conditions: test compound at 1 mM, relative to the control (DMSO), 25° C., pH 7.5, average of 10 tests
T1 sequence (P08170 1-839): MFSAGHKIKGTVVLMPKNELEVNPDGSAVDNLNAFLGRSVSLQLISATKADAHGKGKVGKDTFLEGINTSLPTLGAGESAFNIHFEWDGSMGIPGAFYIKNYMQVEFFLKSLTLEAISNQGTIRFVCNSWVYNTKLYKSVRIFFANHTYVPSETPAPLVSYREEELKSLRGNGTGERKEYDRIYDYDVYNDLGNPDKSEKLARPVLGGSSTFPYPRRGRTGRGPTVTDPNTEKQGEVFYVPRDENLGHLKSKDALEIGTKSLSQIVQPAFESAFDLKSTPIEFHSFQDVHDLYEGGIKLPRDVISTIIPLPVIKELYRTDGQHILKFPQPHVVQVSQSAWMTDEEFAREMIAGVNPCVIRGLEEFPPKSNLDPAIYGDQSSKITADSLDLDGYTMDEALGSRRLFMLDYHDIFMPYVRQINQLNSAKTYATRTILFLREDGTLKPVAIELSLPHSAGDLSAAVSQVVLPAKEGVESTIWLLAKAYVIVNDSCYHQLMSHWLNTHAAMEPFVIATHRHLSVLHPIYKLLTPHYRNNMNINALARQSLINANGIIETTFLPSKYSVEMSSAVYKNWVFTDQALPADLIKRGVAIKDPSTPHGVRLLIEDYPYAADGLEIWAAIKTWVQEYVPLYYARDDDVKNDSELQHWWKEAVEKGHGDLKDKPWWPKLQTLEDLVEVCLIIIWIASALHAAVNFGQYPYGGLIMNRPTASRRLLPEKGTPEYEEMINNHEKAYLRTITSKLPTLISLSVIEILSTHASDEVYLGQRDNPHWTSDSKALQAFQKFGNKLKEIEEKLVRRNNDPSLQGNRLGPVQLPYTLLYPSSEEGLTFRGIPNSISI
Experimental: The effect of the compounds of disclosed herein on the inhibition of purified soybean 15-lipoxygenase was thus tested, given that soybean 15-lipoxygenase is a study model commonly used as a predictive model for human 5-lipoxygenase.
The test performed was as follows:
preparation of a 100 mM, pH 7.5 Tris buffer solution
preparation of a suspension of purified soybean 15-lipoxygenase L1 (0.20 mg/ml) in a pH 7.5100 mM Tris buffer; storage in ice;
calibration of the oxymeter, tank equipped with a magnetic stirring system and thermostatically maintained at 25° C.;
preparation of an aqueous-alcoholic solution (absolute ethanol/water, 5/95, v/v) of potassium arachidonate at a concentration of 7.5 mM;
preparation of a solution of the test compound at a concentration of 30 mM in dimethyl sulphoxide (DMSO);
introduction into the oxymeter tank, with stirring, of 456.6 μl of buffer solution, 16.7 μl of potassium arachidonate solution and 16.7 μl of solution of the test compound or 16.7 μl of DMSO in the case of the “control” measurement.
The recorder was switched on and 10 μl of suspension of 15-lipoxygenase was introduced into the tank.
The maximum rate of consumption of oxygen (Vmax) was recorded.
The various Vmax values were compared with that of the control and the results were expressed as a % thereof. The test was repeated 10 times and an average of these 10 tests were determined.

[2] = 0.1% by weight in ethanol/isopropanol/water (64/16/20 by volume), 45° C., 2 months; hydrolysed glucopyranose linoleate by HPLC
Experimental: The stability of the compounds disclosed herein were assessed (measured by the hydrolysis of the esters).
Solutions comprising 0.1% by weight of the compounds in an ethanol/isopropanol/water mixture (64/16/20 by volume) were prepared. These solutions were left in a chamber thermostatically maintained at 45° C. for 2 months.

Compound	inhibition at 1000 µM [1]	% of hydrolysis [2]
CCCCCCCCCCCCCCCC(=O)OC[C@H]1OC(O)[C@H](O)[C@@H](O)[C@@H]1O (stereo partly drawn) [Compound D, 6-O-hexadecanoyl-D-glucopyranose]	15%	–
CCCCCCCCCCCCCCCCCC(=O)OC[C@H]1OC(O)[C@H](O)[C@@H](O)[C@@H]1O (stereo partly drawn) [Compound C, 6-O-octadecanoyl-D-glucopyranose]	49%	–
CCCCCC=CCC=CCCCCCCCC(=O)O[C@H]1[C@H](O)[C@@H](CO)OC(O)[C@@H]1O (stereo partly drawn) [Compound E, 3-O-octadeca-9,12-dienoyl-D-glucopyranose]	80%	30%

Now from value to compound:

inhibition at 1000 µM [1]	% of hydrolysis [2]	Compound
30%	–	CCCCCCCCC=CCCCCCCCC(=O)OC[C@H]1OC(O)[C@H](O)[C@@H](O)[C@@H]1O (stereo partly drawn) [Compound B, 6-O-octadeca-9-enoyl-D-glucopyranose]
71%	7%	CCCCCC=CCC=CCCCCCCCC(=O)OC[C@H]1OC(O)[C@H](O)[C@@H](O)[C@@H]1O (stereo partly drawn) [Compound A, 6-O-octadeca-9,12-dienoyl-D-glucopyranose]
